Where a name gives a salt, the structure may show the parent alone.
Test system: Acinetobacter baumannii ATCC17961
Test: Antimicrobial susceptibility testing: 90% growth inhibitory concentration (IC90) determination
Format: cell-based
Conditions: Acinetobacter baumannii, ATCC17961, 16 h, 90% growth inhibitory concentration, Acinetobacter baumannii ATCC17961, Iso-Sensitest broth, OD 600 nm over 16 h; read-out: ATCC 17961 IC90
How it was run: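 Growth inhibition derived in log phase from OD600 kinetics (every 20 minutes, 16h, 35±2° C) of ATCC17961 in Iso-Sensitest medium, inoculum ~5×10^5 CFU/ml. Compounds tested as twofold series, 10 points (e.g. 50 to 0.097 μM final); IC90 and IC50 reported.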

Row | IC90 [nM] | Compound
1 | 100 | COCCn1ncc(-c2ccc(-c3cnc(C(=O)Nc4ccc(C(=O)N5CCN(C(=O)[C@@H]6C[C@@H](O)C[N+]6(C)C)CC5)c(C)c4)n3C)c(F)c2F)c1C [Example F14, 5-[2,3-difluoro-4-[1-(2-methoxyethyl)-5-methyl-pyrazol-4-yl]phenyl]-N-[4-[4-[(2S,4R)-4-hydroxy-1,1-dimethyl-pyrrolidin-1-ium-2-carbonyl]piperazine-1-carbonyl]-3-methyl-phenyl]-1-methyl-imidazole-2-carboxamide; 2,2,2-trifluoroacetate]
2 | 55 | COCCn1ncc(-c2ccc(-c3cnc(C(=O)Nc4ccc(C(=O)N5CCN(C(=O)[C@@H]6C[C@@H](O)C[N+]6(C)C)CC5)c(Cl)c4)n3C)c(F)c2F)c1C [Example F15, N-[3-chloro-4-[4-[(2S,4R)-4-hydroxy-1,1-dimethyl-pyrrolidin-1-ium-2-carbonyl]piperazine-1-carbonyl]phenyl]-5-[2,3-difluoro-4-[1-(2-methoxyethyl)-5-methyl-pyrazol-4-yl]phenyl]-1-methyl-imidazole-2-carboxamide; 2,2,2-trifluoroacetate]
3 | 240 | Cc1nn(CCCO)cc1-c1ccc(-c2cnc(C(=O)Nc3ccc(C(=O)N4CCN(C(=O)[C@@H]5C[C@@H](O)C[N+]5(C)C)CC4)c(Cl)c3)n2C)c(F)c1F [Example F16, N-[3-chloro-4-[4-[(2S,4R)-4-hydroxy-1,1-dimethyl-pyrrolidin-1-ium-2-carbonyl]piperazine-1-carbonyl]phenyl]-5-[2,3-difluoro-4-[1-(3-hydroxypropyl)-3-methyl-pyrazol-4-yl]phenyl]-1-methyl-imidazole-2-carboxamide; formate]
4 | 270 | Cc1c(-c2ccc(-c3cnc(C(=O)Nc4ccc(C(=O)N5CCN(C(=O)[C@@H]6C[C@@H](O)C[N+]6(C)C)CC5)c(Cl)c4)n3C)c(F)c2F)cnn1CCCO [Example F17, N-[3-chloro-4-[4-[(2S,4R)-4-hydroxy-1,1-dimethyl-pyrrolidin-1-ium-2-carbonyl]piperazine-1-carbonyl]phenyl]-5-[2,3-difluoro-4-[1-(3-hydroxypropyl)-5-methyl-pyrazol-4-yl]phenyl]-1-methyl-imidazole-2-carboxamide; formate]
5 | 1100 | COCCn1ncc(-c2ccc(-c3cnc(C(=O)Nc4ccc(C(=O)N5CCN(C(=O)C6CC[N+](C)(C)CC6)CC5)c(Cl)c4)n3C)c(OC)c2)c1C [Example F18, N-[3-chloro-4-[4-(1,1-dimethylpiperidin-1-ium-4-carbonyl)piperazine-1-carbonyl]phenyl]-5-[2-methoxy-4-[1-(2-methoxyethyl)-5-methyl-pyrazol-4-yl]phenyl]-1-methyl-imidazole-2-carboxamide; formate]
6 | 330 | COCCn1ncc(-c2ccc(-c3cnc(C(=O)Nc4ccc(C(=O)N5CCN(C(=O)C6CC[N+](C)(C)CC6)CC5)c(Cl)c4)n3C)c(C)c2)c1C [Example F19, N-[3-chloro-4-[4-(1,1-dimethylpiperidin-1-ium-4-carbonyl)piperazine-1-carbonyl]phenyl]-5-[4-[1-(2-methoxyethyl)-5-methyl-pyrazol-4-yl]-2-methyl-phenyl]-1-methyl-imidazole-2-carboxamide; formate]
7 | 180 | CCc1c(-c2ccc(-c3cnc(C(=O)Nc4ccc(C(=O)N5CCN(C(=O)[C@@H]6C[C@@H](O)C[N+]6(C)C)CC5)c(Cl)c4)n3C)c(F)c2F)cnn1CCOC [Example F20, N-[3-chloro-4-[4-[(2S,4R)-4-hydroxy-1,1-dimethyl-pyrrolidin-1-ium-2-carbonyl]piperazine-1-carbonyl]phenyl]-5-[4-[5-ethyl-1-(2-methoxyethyl)pyrazol-4-yl]-2,3-difluoro-phenyl]-1-methyl-imidazole-2-carboxamide; formate]
8 | 170 | COCCn1ncc(-c2ccc(-c3cnc(C(=O)Nc4ccc(C(=O)N5CCN(C(=O)C6CC[N+](C)(C)CC6)CC5)c(Cl)c4)n3C)c(Cl)c2)c1C [Example F22, N-[3-chloro-4-[4-(1,1-dimethylpiperidin-1-ium-4-carbonyl)piperazine-1-carbonyl]phenyl]-5-[2-chloro-4-[1-(2-methoxyethyl)-5-methyl-pyrazol-4-yl]phenyl]-1-methyl-imidazole-2-carboxamide; formate]
9 | 750 | COCCn1ncc(-c2ccc(-c3cnc(C(=O)Nc4ccc(C(=O)N5CCN(C(=O)C6CC[N+](C)(C)CC6)CC5)c(Cl)c4)n3C)c(OC)c2F)c1C [Example F23, N-[3-chloro-4-[4-(1,1-dimethylpiperidin-1-ium-4-carbonyl)piperazine-1-carbonyl]phenyl]-5-[3-fluoro-2-methoxy-4-[1-(2-methoxyethyl)-5-methyl-pyrazol-4-yl]phenyl]-1-methyl-imidazole-2-carboxamide; formate]
10 | 590 | CCc1nn(CCOC)cc1-c1ccc(-c2cnc(C(=O)Nc3ccc(C(=O)N4CCN(C(=O)CC5(O)CC[N+](C)(C)CC5)CC4)c(Cl)c3)n2C)c(F)c1F [Example F24, N-[3-chloro-4-[4-[2-(4-hydroxy-1,1-dimethyl-piperidin-1-ium-4-yl)acetyl]piperazine-1-carbonyl]phenyl]-5-[4-[3-ethyl-1-(2-methoxyethyl)pyrazol-4-yl]-2,3-difluoro-phenyl]-1-methyl-imidazole-2-carboxamide; formate]

Second part, the molecule before the results:

Row | Compound | IC90 [nM]
11 | Cc1c(-c2ccc(-c3cnc(C(=O)Nc4ccc(C(=O)N5CCN(C(=O)[C@@H]6C[C@@H](O)C[N+]6(C)C)CC5)c(Cl)c4)n3C)c(F)c2F)cnn1CCC(C)(C)O [Example F4, N-[3-chloro-4-[4-[(2S,4R)-4-hydroxy-1,1-dimethyl-pyrrolidin-1-ium-2-carbonyl]piperazine-1-carbonyl]phenyl]-5-[2,3-difluoro-4-[1-(3-hydroxy-3-methyl-butyl)-5-methyl-pyrazol-4-yl]phenyl]-1-methyl-imidazole-2-carboxamide; formate] | 830
12 | CNC(=O)Cn1cc(-c2ccc(-c3cnc(C(=O)Nc4ccc(C(=O)N5CCN(C(=O)[C@@H]6C[C@@H](O)C[N+]6(C)C)CC5)c(Cl)c4)n3C)c(F)c2F)c(C)n1 [Example F5, N-[3-chloro-4-[4-[(2S,4R)-4-hydroxy-1,1-dimethyl-pyrrolidin-1-ium-2-carbonyl]piperazine-1-carbonyl]phenyl]-5-[2,3-difluoro-4-[3-methyl-1-[2-(methylamino)-2-oxo-ethyl]pyrazol-4-yl]phenyl]-1-methyl-imidazole-2-carboxamide; formate] | 280
13 | Cn1c(-c2ccc(-c3cn(CCOC(F)F)nc3C(F)(F)F)c(F)c2F)cnc1C(=O)Nc1ccc(C(=O)N2CCN(C(=O)C3CC[N+](C)(C)CC3)CC2)c(Cl)c1 [Example F6, N-[3-chloro-4-[4-(1,1-dimethylpiperidin-1-ium-4-carbonyl)piperazine-1-carbonyl]phenyl]-5-[4-[1-[2-(difluoromethoxy)ethyl]-3-(trifluoro-methyl)pyrazol-4-yl]-2,3-difluoro-phenyl]-1-methyl-imidazole-2-carboxamide; formate] | 570
14 | CC(CO)Cn1cc(-c2ccc(-c3cnc(C(=O)Nc4ccc(C(=O)N5CCN(C(=O)C6CC[N+](C)(C)CC6)CC5)c(Cl)c4)n3C)c(F)c2F)c(C(F)(F)F)n1 (stereo not drawn) [Example F7, N-[3-chloro-4-[4-(1,1-dimethylpiperidin-1-ium-4-carbonyl)piperazine-1-carbonyl]phenyl]-5-[2,3-difluoro-4-[1-(3-hydroxy-2-methyl-propyl)-3-(trifluoro-methyl)pyrazol-4-yl]phenyl]-1-methyl-imidazole-2-carboxamide; formate] | 520
15 | Cc1nn(CCOC(F)F)cc1-c1ccc(-c2cnc(C(=O)Nc3ccc(C(=O)N4CCN(C(=O)[C@@H]5C[C@@H](O)C[N+]5(C)C)CC4)c(Cl)c3)n2C)c(F)c1F [Example F9, N-[3-chloro-4-[4-[(2S,4R)-4-hydroxy-1,1-dimethyl-pyrrolidin-1-ium-2-carbonyl]piperazine-1-carbonyl]phenyl]-5-[4-[1-[2-(difluoro-methoxy)ethyl]-3-methyl-pyrazol-4-yl]-2,3-difluoro-phenyl]-1-methyl-imidazole-2-carboxamide; formate] | 160
16 | Cc1c(-c2ccc(-c3cnc(C(=O)Nc4ccc(C(=O)N5CCN(C(=O)[C@@H]6C[C@@H](O)C[N+]6(C)C)CC5)c(Cl)c4)n3C)c(F)c2F)cnn1CCOC(F)F [Example F10, N-[3-chloro-4-[4-[(2S,4R)-4-hydroxy-1,1-dimethyl-pyrrolidin-1-ium-2-carbonyl]piperazine-1-carbonyl]phenyl]-5-[4-[1-[2-(difluoro-methoxy)ethyl]-5-methyl-pyrazol-4-yl]-2,3-difluoro-phenyl]-1-methyl-imidazole-2-carboxamide; formate] | 75
17 | COCCn1cc(-c2ccc(-c3cnc(C(=O)Nc4ccc(C(=O)N5CCN(C(=O)[C@@H]6C[C@@H](O)C[N+]6(C)C)CC5)c(Cl)c4)n3C)c(F)c2F)c(C(C)C)n1 [Example F11, N-[3-chloro-4-[4-[(2S,4R)-4-hydroxy-1,1-dimethyl-pyrrolidin-1-ium-2-carbonyl]piperazine-1-carbonyl]phenyl]-5-[2,3-difluoro-4-[3-isopropyl-1-(2-methoxyethyl)pyrazol-4-yl]phenyl]-1-methyl-imidazole-2-carboxamide; formate] | 800
18 | COCCn1ncc(-c2ccc(-c3cnc(C(=O)Nc4ccc(C(=O)N5CCN(C(=O)[C@@H]6C[C@@H](O)C[N+]6(C)C)CC5)c(Cl)c4)n3C)c(F)c2F)c1C(F)F [Example F12, N-[3-chloro-4-[4-[(2S,4R)-4-hydroxy-1,1-dimethyl-pyrrolidin-1-ium-2-carbonyl]piperazine-1-carbonyl]phenyl]-5-[4-[5-(difluoromethyl)-1-(2-methoxyethyl)pyrazol-4-yl]-2,3-difluoro-phenyl]-1-methyl-imidazole-2-carboxamide; formate] | 170
